Reference: US20230301957A1, “PO[…] ACID ESTER COMPOSITION AND APPLICATION THEREOF” (SINGAO (XUZHOU) BIOTECH CO., LTD, priority 2020, published 2023)

Test system: influenza virus H1N1
Test: Hemagglutination test of supernatants of influenza-infected A549 cells
Assay type: cell-based, influenza virus H1N1 (A549 cells)
Conditions: for hemagglutination titer, average values: average of the two inoculation treatments (Protocol 1 and 2); for inhibitory effect on the influenza virus (in words): from average hemagglutination titers, high titer indicates high virus content
Protocol: A total of four samples were prepared in this experiment: • (1) a lauric acid sample: 3.5 mg of lauric acid was dissolved in 0.5 mL of dimethyl sulfoxide, and then diluted with 9.5 mL of cell culture medium to a final concentration of 0.35 mg/mL and a pH value of the sample was 10.1; • (2) an α-monolaurin sample: 4.8 mg of α-monolaurin was dissolved in 0.5 mL of dimethyl sulfoxide, and then diluted with 9.5 mL of cell culture medium to a final concentration of 0.48 mg/mL and a pH value of the sample was 10.3; • (3) a triglycerol monolaurin sample: 7.5 mg of triglycerol monolaurin was diluted with 10 mL of cell culture medium to a final concentration of 0.75 mg/mL and a pH value of the sample was 7.6; and • (4) a triglycerol monolaurin acidic emulsion sample: 50 mg of triglycerol monolaurin acidic emulsion sample was diluted with 10 mL of cell culture medium to a final concentration of 5 mg/mL and a pH value of the sample was 7.5.
According to equivalent lauric acid concentration conversion, lauric acid concentrations in the samples (2) to (4) were all 0.35 mg/mL, which was equal to that in the sample (1).
The A549 cells were cultured in a 24-well plate, after growing to a monolayer, the cells were treated according to the following two protocols: • I. The cell culture medium was removed, the virus was added, the cells were cultured in an incubator with 5% CO2 at 37° C. for 1 h, the virus solution was removed, each prepared sample was added, 12 parallel test wells were set for each group, and the cells were cultured in the incubator with 5% CO2 at 37° C. for 1 h. After the culture, liquids in the cell culture wells were removed, the cells were washed with PBS, added with a cell maintenance medium, and cultured in the incubator with 5% CO2 at 37° C. for 24 h. Meanwhile, a virus positive control group (a cell culture medium mixed with influenza virus 24HAU was added) was set. • II. The cell culture medium was removed, each prepared sample and the virus were added, 12 parallel test wells were set for each group, and the cells were cultured in an incubator with 5% CO2 at 37° C. for 1 h. After the culture, liquids in the cell culture wells were removed, the cells were washed with PBS, added with a cell maintenance medium, and cultured in the incubator with 5% CO2 at 37° C. for 24 h. Meanwhile, a virus positive control group (a cell culture medium mixed with influenza virus 24HAU was added) was set.
Cell culture supernatants respectively obtained by the above 2 treatment methods were used for hemagglutination test, each culture plate was frozen and thawed repeatedly 3 times, a cell solution was collected for extraction of RNA, which was used for qRT-PCR detection of nucleoprotein (NP).

| Compound | hemagglutination titer, average values | inhibitory effect on the influenza virus (in words) |
| --- | --- | --- |
| CCCCCCCCCCCC(=O)O [(1), lauric acid] | 4.75 | weaker compared to the sample (4) |
| CCCCCCCCCCCC(=O)OCC(O)CO (stereo not drawn) [(2), α-monolaurin] | 2.25 | the strongest |
| triglycerol monolaurin [(3)] | 4.25 | weaker compared to the sample (4) |
